Laboratory results: patent US3941800A, “N-benzyltriazole compounds” (Bayer Aktiengesellschaft, priority 1969, dated 1976)

Key:
Type in all cases: in vivo
apple seedlings = assay: Growth inhibition/apple seedlings; settings: 168 h; 500 ppm spray on seedlings about 2 cm high; after 7 days vs untreated control
Protocol: (§1) Solvent: 40 parts by weight acetone
(§2) Emulsifier: 0.25 parts by weight alkylaryl polyglycol ether
(§3) To produce a suitable preparation of active compound, 1 part by weight of active compound was mixed with the stated amount of solvent which contained the stated amount of emulsifier, and the concentrate was diluted with a disodium hydrogen phosphate-potassium dihydrogen phosphate buffer solution (pH 6) to the desired concentration.
Apple seedlings were, at a height of about 2 cm, sprayed with a preparation which contained 500 ppm of active compound.
After 7 days, the percentage inhibition of the treated plants compared with the untreated control plant was determined. With 100% inhibition, no growth was present; with 0% inhibition, the growth corresponded to that of the control plant.
The active compounds, the concentrations of the active compounds in ppm (=mg/kg) and the results can be seen from the following Table.

oat grains = assay: Growth inhibition/oat grains; settings: 72 h, shoot length after 3 days vs control, dark, 25°C, pH 6
Protocol: as §1, §2, §3
Batches of 25 oat grains were laid out on two filter papers in a Petri dish. 10 ml. of the preparation of active compound were pipetted into each dish. Germination of the seeds took place in the dark at 25°C.
After 3 days, the length of the shoot was determined and the growth inhibition compared with the control plant was expressed as a percentage. 100% denoted the standstill of growth, and 0% denoted a growth corresponding to that of the untreated plant.
The active compounds, concentrations of the active compounds in ppm (=mg/kg) and the results can be seen from the following Table.

linseed = assay: Growth inhibition/linseed test; settings: 72 h, root length after 3 days vs control, dark, 25°C, pH 6
Protocol: as §1, §2, §3
Batches of 25 linseeds were laid out on two filter papers in a Petri dish. 10 ml. of the preparation of active compound were pipetted into each dish. Germination of the seeds took place in the dark at 25°C.
After 3 days, the length of the roots was determined and the growth inhibition compared with the control plant was expressed as a percentage. 100% denoted the standstill of growth, and 0% denoted a growth corresponding to that of the untreated plant.
The active compounds, the concentrations of the active compounds in ppm (=mg/kg) and results can be seen from the following Table.

tomato plants = assay: Growth inhibition/tomato plants; settings: Solanum lycopersicum, 192 h; 500 ppm spray on plants 10 cm high; after 8 days vs untreated control
Protocol: as §1, §2
as §3, with “compounds,” for “compound,”
Tomato plants of a height of 10 cm were sprayed with a preparation which contained 500 ppm of active compound.
After 8 days, the percentage inhibition of the treated plants compared with the untreated control plant was determined. With 100% inhibition, no growth was present; with 0% inhibition, the growth corresponded to that of the control plant.
The active compounds, concentration of active compound in ppm (=mg/kg) and the results can be seen from the following Table.

[1] = system: beans (Phaseolus vulgaris); assay: Growth inhibition/bean plants; settings: 500 ppm spray on beans 10 cm high; length after 8 days; water control 26 cm
Protocol: as §1, §2
as §3, with “concentrations.” for “concentration.”
Beans (Phaseolus vulgaris) 10 cm high were sprayed with preparations which contained 500 ppm of active compound.
After 8 days, the length of the treated plants compared with the untreated control plant was determined.
The active compounds, concentrations of active compound in ppm (=mg/kg) and the results can be seen from the following Table.

SMILES: C[N+](C)(C)CCCl [(2-chloroethyl)-trimethyl-ammonium chloride, reference compound]
- inhibition at 500 ppm (apple seedlings): 25%
- inhibition at 50 ppm (oat grains): 22%
- inhibition at 250 ppm (oat grains): 31%
- inhibition at 50 ppm (linseed): 20%
- inhibition at 250 ppm (linseed): 30%
- inhibition at 500 ppm (tomato plants): 25%

SMILES: Cc1cc(C(c2ccccc2)(c2ccc(F)cc2)n2cncn2)no1 (stereo not shown) [Compound 1, (4-fluoro-phenyl)-phenyl-(5-methyl-isoxazol-3-yl)-(1,2,4-triazol-1-yl)-methane]
- inhibition at 500 ppm (apple seedlings): 50%
- Length in cm with a concentration of active compound of 500 ppm [1]: 10.5 cm
- inhibition at 50 ppm (oat grains): 97%
- inhibition at 250 ppm (oat grains): 100%
- inhibition at 50 ppm (linseed): 85%
- inhibition at 250 ppm (linseed): 100%
- inhibition at 500 ppm (tomato plants): 81%

SMILES: Cc1cc(C(c2ccccc2)(c2ccc(Cl)cc2)n2cncn2)no1 (stereo not shown) [Compound 2, (4-chloro-phenyl)-phenyl-(5-methyl-isoxazol-3-yl)-(1,2,4-triazol-1-yl)-methane]
- Length in cm with a concentration of active compound of 500 ppm [1]: 10.0 cm
- inhibition at 50 ppm (oat grains): 55%
- inhibition at 250 ppm (oat grains): 95%
- inhibition at 50 ppm (linseed): 55%
- inhibition at 250 ppm (linseed): 85%
- inhibition at 500 ppm (tomato plants): 88%

SMILES: Cc1cccc(C(c2ccccc2)(c2nccn2C)n2cncn2)c1 (stereo not shown) [Compound 3, (3-methyl-phenyl)-phenyl-(1-methyl-imidazol-2-yl)-(1,2,4-triazol-1-yl)-methane]
- inhibition at 50 ppm (linseed): 85%
- inhibition at 250 ppm (linseed): 100%
- inhibition at 500 ppm (tomato plants): 60%

SMILES: Cc1cc(C(c2ccccc2)(c2ccccc2)n2cncn2)no1 [Compound 4, bis-phenyl-(5-methyl-isoxazol-3-yl)-(1,2,4-triazol-1-yl)-methane]
- inhibition at 500 ppm (apple seedlings): 43%
- inhibition at 50 ppm (oat grains): 65%
- inhibition at 250 ppm (oat grains): 75%
- inhibition at 500 ppm (tomato plants): 80%

SMILES: Cn1ccnc1C(c1ccccc1)(c1ccc(Cl)cc1)n1cncn1 (stereo not shown) [Compound 6, (4-chloro-phenyl)-phenyl-(1-methyl-imidazol-2-yl)-(1,2,4-triazol-1-yl)-methane]
- inhibition at 50 ppm (oat grains): 25%
- inhibition at 250 ppm (oat grains): 70%

SMILES: Cn1ccnc1C(c1ccccc1)(c1ccc(C(C)(C)C)cc1)n1cncn1 (stereo not shown) [Compound 7, (4-tert.-butyl-phenyl)-phenyl(1-methyl-imidazol-2-yl)-(1,2,4-triazol-1-yl)-methane]
- inhibition at 50 ppm (oat grains): 25%
- inhibition at 250 ppm (oat grains): 62%

SMILES: Cn1ccnc1C(c1ccccc1)(c1ccc(-c2ccccc2)cc1)n1cncn1 (stereo not shown) [Compound 8, (4-phenyl-phenyl)-phenyl(1-methyl-imidazol-2-yl)-(1,2,4-triazol-1-yl)-methane]
- Length in cm with a concentration of active compound of 500 ppm [1]: 11.5 cm

SMILES: O=c1ccc(=O)[nH][nH]1 [maleic acid hydrazide, reference compound]
- Length in cm with a concentration of active compound of 500 ppm [1]: 12 cm
- inhibition at 50 ppm (oat grains): 20%
- inhibition at 250 ppm (oat grains): 40%
- inhibition at 50 ppm (linseed): 36%
- inhibition at 250 ppm (linseed): 50%
- inhibition at 500 ppm (tomato plants): 33%

SMILES: CN(C)NC(=O)CCC(=O)O [succinic acid 2,2-dimethylhydrazide, reference compound]
- inhibition at 500 ppm (apple seedlings): 23%
- inhibition at 50 ppm (oat grains): 22%
- inhibition at 250 ppm (oat grains): 37%
- inhibition at 50 ppm (linseed): 12%
- inhibition at 250 ppm (linseed): 15%
- inhibition at 500 ppm (tomato plants): 20%
